Where two headings read alike, the source gives them in different places.
Columns and labels:
KARN cells (Jurkat 2C4) = assay: cells; conditions: Homo sapiens
Description: KARN Assay Cell Maintenance
KARN cells (Jurkat 2C4) were licensed from the laboratory of Dr. John Karn, Case Western Reserve University, School of Medicine. […] An atmosphere of 5% CO2 and 90% humidity was used for all culture work.
These flasks were returned to the incubator.
The cells were gently resuspended in assay media (30 ml) and pelleted again. […] The cells were counted using the ViCell (Beckman Coulter) and diluted as necessary. […] The plates were covered and returned to the incubator prior to compound addition.
The reference compounds, DMSO and SAHA were then added to the compound plate. […] The final high concentration for SAHA and the test compounds in the assays was 40 μM. The final DMSO concentration in all wells was 0.4%. The minimal induction reference compound used was DMSO and the maximal induction reference compound used was SAHA (2 μM final concentration in the assay).
Day 3: The luciferase detection reagent was prepared by transferring the contents of one bottle of Steady-Glo buffer to one bottle of Steady-Glo aubstrate (Steady-Glo Luciferase Assay System, Promega, catalog number E2520), followed by gently mixing until the substrate was thoroughly dissolved and the solution was equilibrated to room temperature. […] The Steady-Glo Reagent was added to the plates (30 μl/well), which were then covered with a black lid and incubated for 10 minutes at room temperature. The plates were then read for luminescence on an Envision (Perkin Elmer) using the ultrasensitive mode (US LUM), 0.1 counts per second and 384-well aperture. Luminescence counts in the DMSO reference wells were considered as 0% induction, while those in the 2 μM SAHA reference wells were considered as 100% induction. Dose response curves were plotted as test compound concentration (X-axis) vs. percent activation (Y-axis) using a 4-parameter fit based on the Levenberg-Marquardt algorithm.

HDAC6 = HDAC6 (Homo sapiens (Human), UniProt Q9UBN7)
[1] = read-out: Karn EC50 nM 0.1% NHS, 0.1% normal human serum, luciferase induction, 2 μM SAHA = 100%
[2] = read-out: Karn EC50 nM 5% NHS, 5% normal human serum, luciferase induction, 2 μM SAHA = 100%

Chain of HDAC6 (Q9UBN7 whole entry): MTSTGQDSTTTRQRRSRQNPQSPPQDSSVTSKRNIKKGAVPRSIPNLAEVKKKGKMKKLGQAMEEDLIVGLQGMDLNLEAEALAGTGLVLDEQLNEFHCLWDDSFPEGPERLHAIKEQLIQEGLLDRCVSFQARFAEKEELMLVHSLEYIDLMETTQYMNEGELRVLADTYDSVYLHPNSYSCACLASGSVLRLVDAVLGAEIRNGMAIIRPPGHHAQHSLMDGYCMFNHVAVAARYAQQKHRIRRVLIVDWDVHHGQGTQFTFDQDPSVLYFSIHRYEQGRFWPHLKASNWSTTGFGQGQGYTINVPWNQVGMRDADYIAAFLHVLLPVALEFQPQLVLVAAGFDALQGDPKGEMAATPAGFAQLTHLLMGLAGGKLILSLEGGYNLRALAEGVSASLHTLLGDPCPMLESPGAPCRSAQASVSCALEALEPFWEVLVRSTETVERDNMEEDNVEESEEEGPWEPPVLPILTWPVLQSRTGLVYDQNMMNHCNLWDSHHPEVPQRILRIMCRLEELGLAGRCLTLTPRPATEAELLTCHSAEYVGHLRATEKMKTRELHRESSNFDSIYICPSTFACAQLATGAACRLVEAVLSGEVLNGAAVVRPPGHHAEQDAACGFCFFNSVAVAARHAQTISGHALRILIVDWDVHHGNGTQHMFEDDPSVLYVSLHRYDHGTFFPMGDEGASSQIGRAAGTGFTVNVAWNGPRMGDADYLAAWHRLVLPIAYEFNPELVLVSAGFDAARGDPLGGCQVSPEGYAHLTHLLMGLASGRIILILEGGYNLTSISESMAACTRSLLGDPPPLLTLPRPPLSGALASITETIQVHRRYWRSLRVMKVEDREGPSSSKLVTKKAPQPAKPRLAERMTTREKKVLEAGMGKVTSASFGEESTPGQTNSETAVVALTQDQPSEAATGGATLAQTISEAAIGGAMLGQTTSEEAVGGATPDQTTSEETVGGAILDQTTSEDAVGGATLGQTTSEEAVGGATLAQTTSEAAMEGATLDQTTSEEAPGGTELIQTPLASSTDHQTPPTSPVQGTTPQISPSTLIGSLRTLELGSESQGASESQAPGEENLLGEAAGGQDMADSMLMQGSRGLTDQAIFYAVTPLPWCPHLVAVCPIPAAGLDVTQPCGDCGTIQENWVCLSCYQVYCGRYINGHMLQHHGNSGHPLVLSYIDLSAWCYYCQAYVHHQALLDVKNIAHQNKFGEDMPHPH

| Structure (SMILES) | EC50 (KARN cells (Jurkat 2C4); [1]) [nM] | EC50 (KARN cells (Jurkat 2C4); [2]) [nM] | IC50 (HDAC6) [nM] |
| --- | --- | --- | --- |
| COc1ncccc1-c1cnc([C@H](CCCCCC(=O)c2ncco2)NC(=O)C2CN(C)C2)o1 (stereo in doubt) [Example 104, N-(1-(5-(2-methoxypyridin-3-yl)oxazol-2-yl)-7-(oxazol-2-yl)-7-oxoheptyl)-1-methylazetidine-3-carboxamide] | 40 | 44 | > 900 |
| O=C(CCCCC[C@H](NC(=O)c1cncs1)c1nc(-c2ccc(F)cc2)c[nH]1)c1ncco1 [Example 2, (S)-N-(1-(4-(4-fluorophenyl)-1H-imidazol-2-yl)-7-(oxazol-2-yl)-7-oxoheptyl)thiazole-5-carboxamide] | 44 | 97 | 45000 |
| CN1CCC(C(=O)N[C@@H](CCCCCC(=O)c2ncco2)c2nc(-c3ccc(F)cc3)c[nH]2)CC1 [Example 3, (S)-N-(1-(4-(4-fluorophenyl)-1H-imidazol-2-yl)-7-(oxazol-2-yl)-7-oxoheptyl)-1-methylpiperidine-4-carboxamide] | 18 | 26 | 45000 |
| O=C(CCCCC[C@H](NC(=O)[C@H]1CC12CCOCC2)c1nc(-c2ccc(F)cc2)c[nH]1)c1ncco1 [Example 5, N-((S)-1-(4-(4-fluorophenyl)-1H-imidazol-2-yl)-7-(oxazol-2-yl)-7-oxoheptyl)-6-oxaspiro[2.5]octane-1-carboxamide] | 63 | 130 | 45000 |
| O=C(N[C@@H](CCCCCC(=O)c1nccs1)c1nc(-c2ccc(F)cc2)c[nH]1)c1cncs1 [Example 7, (S)-N-(1-(4-(4-fluorophenyl)-1H-imidazol-2-yl)-7-oxo-7-(thiazol-2-yl)heptyl)thiazole-5-carboxamide] | 23 | 8400 | 45000 |
| Cc1coc(C(=O)CCCCC[C@H](NC(=O)C2CCN(C)CC2)c2nc(-c3ccc(F)cc3)c[nH]2)n1 [Example 8, (S)-N-(1-(4-(4-fluorophenyl)-1H-imidazol-2-yl)-7-(4-methyloxazol-2-yl)-7-oxoheptyl)-1-methylpiperidine-4-carboxamide] |  |  | 15000 |
| COc1nc(C)ccc1-c1c[nH]c([C@@H](N)CCCCCC(=O)c2ncco2)n1 [Example 11] | 620 | 670 | 45000 |
| COc1cc2nc(C)ccc2cc1-c1c[nH]c([C@@H](N)CCCCCC(=O)c2ncco2)n1 [Example 12, (S)-7-amino-7-(5-(7-methoxy-2-methylquinolin-6-yl)-1H-imidazol-2-yl)-1-(oxazol-2-yl)heptan-1-one] | 66 | 80 | 8300 |
| COc1nc2cnccc2cc1-c1c[nH]c([C@@H](N)CCCCCC(=O)c2ncco2)n1 [Example 13] | 94 | 140 | 45000 |
| CN(C)c1ccc2cc(-c3cnc([C@@H](N)CCCCCC(=O)c4ncco4)[nH]3)ccc2n1 [Example 18] | 93 | 130 | > 1500 |
| N[C@@H](CCCCCC(=O)c1ncco1)c1ncc(-c2ccc(-c3cnccn3)cc2)[nH]1 [Example 20] | 450 | 340 | 45000 |
| Cn1c(=O)ccc2cc(-c3c[nH]c([C@@H](N)CCCCCC(=O)c4ccon4)n3)ccc21 [Example 32, (S)-6-(2-(1-amino-7-(isoxazol-3-yl)-7-oxoheptyl)-1H-imidazol-4-yl)-1-methylquinolin-2(1H)-one] | 26 | 35 | 15000 |
| COc1cc2c(ccc(=O)n2C)cc1-c1cnc([C@@H](N)CCCCCC(=O)c2ccon2)[nH]1 [Example 35, (S)-6-(2-(1-amino-7-(isoxazol-3-yl)-7-oxoheptyl)-1H-imidazol-5-yl)-7-methoxy-1-methylquinolin-2(1H)-one] | 72 | 50 | 15000 |
| Cc1ccc2cc(-c3c[nH]c([C@H](CCCCCC(=O)c4ccon4)NC(=O)C4CN(C)C4)n3)ccc2n1 [Example 43] | 8.5 | 14 | 1800 |
| CN(C)CC(=O)N[C@@H](CCCCCC(=O)c1ccon1)c1nc(-c2ccccc2F)c[nH]1 [Example 47] | 3.7 | 10 | 9100 |
| Cc1cc(C(=O)CCCCC[C@H](NC(=O)C2CN(C)C2)c2nc(-c3ccccc3F)c[nH]2)no1 [Example 59] |  |  | 45000 |
| CC(C(=O)N[C@@H](CCCCCC(=O)c1ccon1)c1ncc(-c2ccccc2F)[nH]1)N(C)C (some centres unmarked) [Example 61] | 3.6 | 5.8 | > 900 |
| CN(C)C1(C(=O)N[C@@H](CCCCCC(=O)c2ccon2)c2ncc(-c3ccccc3F)[nH]2)CC1 [Example 62] | 50 | 100 | > 900 |
| CN(C)CC(=O)N[C@@H](CCCCCC(=O)c1ncco1)c1[nH]c(-c2ccc(F)cc2)nc1Cl [Example 90] | 14 | 34 | 26000 |
| N[C@@H](CCCCCC(=O)c1ccon1)c1ccn(-c2ccc(F)cc2)n1 [Example 120, (7S)-7-amino-7-[1-(4-fluorophenyl)-1H-pyrazol-3-yl]-1-isoxazol-3-ylheptan-1-one] |  |  | 45000 |
| NC(CCCCCC(=O)c1ccon1)c1cnn(-c2ccc(F)cc2)n1 (centres unmarked) [Example 123, 7-amino-7-[2-(4-fluorophenyl)-2H-1,2,3-triazol-4-yl]-1-isoxazol-3-ylheptan-1-one] |  |  | 45000 |
| Cn1cc2cc(-c3cc([C@@H](N)CCCCCC(=O)c4ccon4)no3)ccc2n1 [Example 126, (7S)-7-amino-1-isoxazol-3-yl-7-[5-(2-methyl-2H-indazol-5-yl)isoxazol-3-yl]heptan-1-one] | 170 | 250 | > 900 |
| N#Cc1cnc(-c2cnc([C@@H](N)CCCCCC(=O)c3ncco3)[nH]2)cn1 [Example 132, 5-{2-[(1S)-1-amino-7-(1,3-oxazol-2-yl)-7-oxoheptyl]-1H-imidazol-5-yl}pyrazine-2-carbonitrile] | 25000 | 30000 |  |
| N#Cc1cncc(-c2cnc([C@@H](N)CCCCCC(=O)c3ncco3)[nH]2)n1 [Example 133, 6-{2-[(1S)-1-amino-7-(1,3-oxazol-2-yl)-7-oxoheptyl]-1H-imidazol-5-yl}pyrazine-2-carbonitrile] | 23000 | 25000 |  |
| CCN1CCC2(CC1)C[C@@H]2C(=O)N[C@@H](CCCCCC(=O)c1ccon1)c1cc(-c2ccccc2F)on1 [Example 175, (1S)-6-ethyl-N-{(1S)-1-[5-(2-fluorophenyl)isoxazol-3-yl]-7-isoxazol-3-yl-7-oxoheptyl}-6-azaspiro[2.5]octane-1-carboxamide] | 13 | 19 |  |
| CCN1CCC2(CC1)C[C@@H]2C(=O)N[C@@H](CCCCCC(=O)c1ccon1)c1cc(-c2ccc3nn(C)cc3c2)on1 [Example 176, (1S)-6-ethyl-N-{(1S)-7-isoxazol-3-yl-1-[5-(2-methyl-2H-indazol-5-yl)isoxazol-3-yl]-7-oxoheptyl}-6-azaspiro[2.5]octane-1-carboxamide] | 14 | 13 |  |
| CN1CCC2(CC1)CC(C(=O)N[C@@H](CCCCCC(=O)c1ccon1)c1cc(-c3ccc4nn(C)cc4c3)on1)=NO2 [Example 177, N-{(1S)-7-isoxazol-3-yl-1-[5-(2-methyl-2H-indazol-5-yl)isoxazol-3-yl]-7-oxoheptyl}-8-methyl-1-oxa-2,8-diazaspiro[4.5]dec-2-ene-3-carboxamide] | 33 | 55 |  |
